Assay results from patent US6511815B1, “Method for quantitating competitive binding of molecules to proteins utilizing fluorescence polarization” (priority 1996, dated 2003).

Target: T1, Estrogen receptor (Homo sapiens, UniProt P03372)
T1 construct: purchased PanVera Corporation, Madison, Wis
Assay: Competitive fluorescence polarization assay, displacement of fluormone ES1 from ER by environmental compounds
Type: binding
Conditions: 1 nM ES1, 10 nM ER, 2.5 hours at room temperature, 360/485 nm
Protocol: Many compounds found in the environment are know to act as natural estrogens. […] The two pesticides were tested individually and together. […] Estrogen receptor was added to each tube at a final concentration of 10 nM. The mixtures were allowed to equilibrate for 2.5 hours at room temperature and the polarization values were read 360/485 nm excitation/emission.

T1 sequence (P03372 whole entry): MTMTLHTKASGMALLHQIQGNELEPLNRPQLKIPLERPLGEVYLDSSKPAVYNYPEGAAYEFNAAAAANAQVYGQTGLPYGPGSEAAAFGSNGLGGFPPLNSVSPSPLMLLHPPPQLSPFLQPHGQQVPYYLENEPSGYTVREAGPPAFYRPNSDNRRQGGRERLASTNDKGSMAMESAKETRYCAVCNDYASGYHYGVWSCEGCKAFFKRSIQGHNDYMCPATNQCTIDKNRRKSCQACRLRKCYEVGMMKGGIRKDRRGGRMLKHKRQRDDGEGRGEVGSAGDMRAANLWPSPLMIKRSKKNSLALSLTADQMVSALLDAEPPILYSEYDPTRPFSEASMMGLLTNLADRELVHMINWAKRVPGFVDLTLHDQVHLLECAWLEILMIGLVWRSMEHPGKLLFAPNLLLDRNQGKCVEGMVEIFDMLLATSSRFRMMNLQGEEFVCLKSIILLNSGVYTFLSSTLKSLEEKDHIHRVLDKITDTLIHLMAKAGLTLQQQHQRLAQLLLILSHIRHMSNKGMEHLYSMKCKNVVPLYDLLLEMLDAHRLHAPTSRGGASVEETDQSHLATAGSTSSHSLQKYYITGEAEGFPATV

**Q.** How did the “ability to displace fluormone ES1 binding to ER” value turn out when `ClC1=C(Cl)C2(Cl)C3C(Cl)C(Cl)CC3C1(Cl)C2(Cl)Cl` (stereo not shown) [chlordane] was run?
**A.** effectively competed the fluormone ES1 off the estrogen receptor
